15 molecules from the CheMixHub ionic liquid set can be followed below.

This data set can be described thus: xn = mol fraction of the nth substance listed. The conditions noted are these: for electrical conductivity: frequency 0.002 MHz.

± gives the uncertainty stated by the source.

For the molecule `CC(CC(C)(C)C)CP(=O)([O-])CC(C)CC(C)(C)C.CCCCCCCCCCCCCC[P+](CCCCCC)(CCCCCC)CCCCCC` + CCC(=O)O + O, the viscosity is, setting by setting: (298.15 K, 100 kPa, x2 = 0.02049, x1 = 0.1002) 133 ± 48 mPa·s; (298.15 K, 100 kPa, x2 = 0.02069, x1 = 0.09762) 145 ± 52 mPa·s; (298.15 K, 100 kPa, x2 = 0.04451, x1 = 0.115) 139 ± 42 mPa·s; (298.15 K, 100 kPa, x2 = 0.231, x1 = 0.1669) 147 ± 45 mPa·s; (298.15 K, 100 kPa, x2 = 0.3019, x1 = 0.1781) 150 ± 46 mPa·s; (298.15 K, 100 kPa, x2 = 0.3925, x1 = 0.1645) 145 ± 45 mPa·s. For the same molecule, the viscosity is, setting by setting: (298.15 K, 100 kPa, x2 = 0.4515, x1 = 0.1697) 133 ± 42 mPa·s; (298.15 K, 100 kPa, x2 = 0.4652, x1 = 0.1675) 127 ± 39 mPa·s; (298.15 K, 100 kPa, x2 = 0.4969, x1 = 0.154) 133 mPa·s; (298.15 K, 100 kPa, x2 = 0.5235, x1 = 0.1181) 81 ± 33 mPa·s; (298.15 K, 100 kPa, x2 = 0.5255, x1 = 0.1239) 85 ± 34 mPa·s; (298.15 K, 100 kPa, x2 = 0.5271, x1 = 0.1398) 114 ± 36 mPa·s. Moreover, the viscosity is, setting by setting: (298.15 K, 100 kPa, x2 = 0.5377, x1 = 0.108) 60 ± 22 mPa·s; (298.15 K, 100 kPa, x2 = 0.571, x1 = 0.09705) 52 ± 18 mPa·s.
In the case of `CCCC[n+]1ccn(C)c1.F[P-](F)(F)(F)(F)F` + CCC(C)=O, the viscosity is given as 43.3 ± 1.4 mPa·s (298.15 K, 101.3 kPa, x2 = 0.3016); 23.55 ± 0.66 mPa·s (298.15 K, 101.3 kPa, x2 = 0.4024); 18.18 ± 0.49 mPa·s (298.15 K, 101.3 kPa, x2 = 0.4485); 5.15 ± 0.13 mPa·s (298.15 K, 101.3 kPa, x2 = 0.6517).
For the molecule `CC#N` + CCCCCCCC(=O)[O-].c1c[nH+]c[nH]1, the viscosity was 0.333 ± 0.013 mPa·s (298.15 K, 101.3 kPa, x1 = 1) and 0.223 ± 0.01 mPa·s (323.15 K, 101.3 kPa, x1 = 1).
For `CC(CC(C)(C)C)CP(=O)([O-])CC(C)CC(C)(C)C.CCCCCCCCCCCCCC[P+](CCCCCC)(CCCCCC)CCCCCC` + CCCCCCCCCCCC, the viscosity reads like this: (298.15 K, 101 kPa, x1 = 0.4684) 82 ± 2.7 mPa·s; (303.15 K, 101 kPa, x1 = 1) 757 ± 46 mPa·s; (308.15 K, 101 kPa, x1 = 0.4684) 56.3 ± 1.7 mPa·s; (318.15 K, 101 kPa, x1 = 0.6647) 103 ± 4 mPa·s; (338.15 K, 101 kPa, x1 = 0.6647) 50.4 ± 1.6 mPa·s; (343.15 K, 101 kPa, x1 = 0.6647) 43.4 ± 1.4 mPa·s. Where the note is “343.15 K, 101 kPa, x1 = 1”, this molecule yielded a viscosity of 111 ± 4 mPa·s.
The molecule `CC(CC(C)(C)C)CP(=O)([O-])CC(C)CC(C)(C)C.CCCCCCCCCCCCCC[P+](CCCCCC)(CCCCCC)CCCCCC` + CCCCCCCCCCCC + O yielded a viscosity (303.15 K, 100 kPa, x2 = 0, x3 = 0.8861) of 119.5 ± 7.9 mPa·s.
Where the note is “323 K, 101 kPa, x2 = 0.621”, `CCCCCCCCCCCCCCCCCC[n+]1ccn(C)c1.O=S(=O)([N-]S(=O)(=O)C(F)(F)F)C(F)(F)F` + CCCCCCCCCCCCCCCCn1cc[n+](C)c1.O=S(=O)([N-]S(=O)(=O)C(F)(F)F)C(F)(F)F returned a viscosity of 89.5 ± 2.1 mPa·s.
`CCCCCCCCCCCCCCCCCC[n+]1ccn(C)c1.O=S(=O)([N-]S(=O)(=O)C(F)(F)F)C(F)(F)F` + CCCCCCCCCCCCCC[n+]1ccn(C)c1.O=S(=O)([N-]S(=O)(=O)C(F)(F)F)C(F)(F)F displayed a viscosity (323 K, 101 kPa, x2 = 0.7675) of 62.9 ± 1.3 mPa·s.
For `CCCCCCCCCCCCCCCC[n+]1ccn(C)c1.[Cl-]` + CCCCCCCCCCCC[N+](C)(C)C.[Br-] + O, the electrical conductivity is 0.025 ± 0.00051 S/m (303.15 K, 100 kPa, x1 = 5.946e-05, x2 = 1.478e-05); 0.0286 ± 0.00059 S/m (303.15 K, 100 kPa, x1 = 7.207e-05, x2 = 1.802e-05); 0.0355 ± 0.00073 S/m (303.15 K, 100 kPa, x1 = 9.712e-05, x2 = 2.433e-05); 0.0202 ± 0.00041 S/m (313.15 K, 100 kPa, x1 = 6.13e-06, x2 = 2.433e-05); 0.0184 ± 0.00037 S/m (313.15 K, 100 kPa, x1 = 7.75e-06, x2 = 1.802e-05); 0.0146 ± 0.0003 S/m (313.15 K, 100 kPa, x1 = 2.09e-05, x2 = 2.34e-06). The electrical conductivity (323.15 K, 100 kPa, x1 = 9.19e-06, x2 = 2.126e-05) came to 0.0259 ± 0.00052 S/m.
In turn, `CCCC[n+]1ccn(C)c1.O=S(=O)([N-]S(=O)(=O)C(F)(F)F)C(F)(F)F` + CCCCCCCCCO had a viscosity (298 K, 100 kPa, x1 = 1) of 49.7 ± 1.3 mPa·s.
Molecule `CCCC[n+]1ccn(C)c1.O=S(=O)([N-]S(=O)(=O)C(F)(F)F)C(F)(F)F` + CCCCCCCCO gave a viscosity (298 K, 100 kPa, x1 = 1) of 49.7 ± 1.3 mPa·s.
Where the note is “328.15 K, 101 kPa, x1 = 1”, `CCCCCCO` + CCCCCCCC[n+]1ccc2ccccc2c1.O=S(=O)([N-]S(=O)(=O)C(F)(F)F)C(F)(F)F had a viscosity of 1.97 ± 0.02 mPa·s.
In turn, `CN(C)C=O` + CCCCCCCC[n+]1ccn(C)c1.F[P-](F)(F)(F)(F)F registered a viscosity (293.15 K, 101 kPa, x2 = 0) of 0.881 ± 0.03 mPa·s; a viscosity (303.15 K, 101 kPa, x2 = 0) of 0.771 ± 0.029 mPa·s; a viscosity (313.15 K, 101 kPa, x2 = 0) of 0.668 ± 0.028 mPa·s; a viscosity (323.15 K, 101 kPa, x2 = 0) of 0.605 ± 0.028 mPa·s; a viscosity (333.15 K, 101 kPa, x2 = 0) of 0.553 ± 0.025 mPa·s; a viscosity (353.15 K, 101 kPa, x2 = 0) of 0.479 ± 0.02 mPa·s. The same molecule showed a viscosity (363.15 K, 101 kPa, x2 = 0) of 0.447 ± 0.018 mPa·s.
Turning to `CN(C)C=O` + CCCCCCCCn1cc[n+](C)c1.N#C[S-], the viscosity runs as follows: (293.15 K, 101 kPa, x2 = 0) 0.881 ± 0.026 mPa·s; (303.15 K, 101 kPa, x2 = 0) 0.771 ± 0.023 mPa·s; (313.15 K, 101 kPa, x2 = 0) 0.668 ± 0.022 mPa·s; (323.15 K, 101 kPa, x2 = 0) 0.605 ± 0.021 mPa·s; (333.15 K, 101 kPa, x2 = 0) 0.553 ± 0.019 mPa·s; (353.15 K, 101 kPa, x2 = 0) 0.479 ± 0.015 mPa·s. Under “363.15 K, 101 kPa, x2 = 0”, the viscosity is 0.447 ± 0.014 mPa·s.
Take `CN1CCCC1=O` + CCCCCCCCn1cc[n+](C)c1.N#C[S-]: the viscosity is, setting by setting: (288.15 K, 101 kPa, x2 = 0) 2.127 ± 0.023 mPa·s; (298.15 K, 101 kPa, x2 = 0) 1.785 ± 0.02 mPa·s; (308.15 K, 101 kPa, x2 = 0) 1.543 ± 0.018 mPa·s; (318.15 K, 101 kPa, x2 = 0) 1.306 ± 0.017 mPa·s.
For the molecule `CN(C)C=O` + CCCCCCCCn1cc[n+](C)c1.O=S(=O)([N-]S(=O)(=O)C(F)(F)F)C(F)(F)F, the viscosity by setting is: (293.15 K, 101 kPa, x2 = 0) 0.881 ± 0.035 mPa·s; (303.15 K, 101 kPa, x2 = 0) 0.771 ± 0.036 mPa·s; (313.15 K, 101 kPa, x2 = 0) 0.668 ± 0.037 mPa·s; (323.15 K, 101 kPa, x2 = 0) 0.605 ± 0.038 mPa·s; (333.15 K, 101 kPa, x2 = 0) 0.553 ± 0.037 mPa·s; (353.15 K, 101 kPa, x2 = 0) 0.479 ± 0.029 mPa·s. Moreover, the viscosity (363.15 K, 101 kPa, x2 = 0) is on record as 0.447 ± 0.023 mPa·s.

Usually viscosity stands for the internal friction of a fluid under shear. Lower therefore signals easy flow.
